Data published in patent US6734310B2, “Fluorescent marker” (FEW Chemicals GmbH, priority 2000, dated 2004).

Key:
[1] = VIS spectra of dye after coupling to a protein (aggregation in the protein conjugate); details: FIG. 1
[2] = protein conjugate vs free dye; cited from earlier work

Compound	VIS spectrum curve shape (monomer / dimer band) [1]	decrease of fluorescence quantum yield of the protein conjugate compared with free, unconjugated dye [2]
CC(C=CC1=[N+](CCCCCC(=O)O)c2ccc(S(=O)(=O)[O-])cc2C1(C)C)=CC=C1N(CCCCCC(=O)O)c2ccc(S(=O)(=O)[O-])cc2C1(C)C.[Na+] [Example 1, 1-(5-carboxypentyl)-2-[5-(l-(5-carboxypentyl)-1,3-dihydro-3,3-dimethyl-5-sulpho-2H-indole-2-ylidene)-3-methylpenta-1,3-dienyl]-3,3-dimethyl-5-sulpho-3H-indolium-inner Salt, Sodium Salt]	typical curve shape for a monomer	
CC(C=CC1=[N+](CCCCCC(=O)O)c2ccc(S(=O)(=O)[O-])cc2C1(C)C)=C1N(CCCCCC(=O)O)c2ccc(S(=O)(=O)[O-])cc2C1(C)C.[Na+] [Example 3, 1-(5-carboxypentyl)-2-[3-(1,3-dihydro-1-(5-carboxypentyl)-3,3-dimethyl-5-sulpho-2H-indole-2-ylidene)-3-methylprop-1-enyl]-3,3-dimethyl-5-sulpho-3H-indolium Hydroxide, Inner Salt, Sodium Salt]		around ¼
